# Experimental data reported in patent publication US8772353B2, “Method for enhancing the bioavalability of ospemifene” (Hormos Medical Ltd., priority 2004, dated 2014).
# Read-outs that look alike come from different tables or passages of the source.
# How the values were obtained:
# [1] = Study A: bioavailability of ospemifene after high caloric, high-fat breakfast versus fasted condition; conditions: for effect of food intake on bioavailability: 60 mg ospemifene tablet, single oral dose, high caloric (860 kcal), high-fat meal versus fasted, serum
# Description: Blood samples for pharmacokinetic assessments were drawn during 72 hours at each study period. A washout period between the two treatments was at least 2 weeks. […] The meal provided approximately 150, 170 and 540 kcal from protein, carbohydrate and fat, respectively.
# [2] = 60 mg ospemifene tablet, single oral dose, low caloric (300 kcal), low-fat meal versus fasted, serum
# Description: The composition of the light breakfast (approximately 300 kcal) was as follows: two slices of toast with margarine (5 g, fat content 60%), 6 slices (30 g) of cucumber, 240 ml skimmed (non-fat) milk and 100 ml orange juice. The test meal provided approximately 50, 180 and 70 kcal from protein, carbohydrate and fat, respectively.
# [3] = cited from earlier work
# [4] = cited from earlier work; remark: listed apart in the source
# [5] = Anttila M., 1997; cited from earlier work
SMILES,effect of food intake on bioavailability [1],effect of food intake on bioavailability [2],aqueous solubility [3],tolerability ([4]; in vivo),bioavailability ([4]; oral administration),"effect of food intake on ospemifene absorption (increase) ([1]; oral, food intake versus fasted)",effect of food intake on absorption [5],effect of food intake on bioavailability [5]
"OCCOc1ccc(/C(=C(/CCCl)c2ccccc2)c2ccc(O)cc2)cc1 [4-hydroxy-ospemifene, 4-hydroxyospemifene]",substantial effect,–,–,–,–,–,–,–
OCCOc1ccc(/C(=C(/CCCl)c2ccccc2)c2ccccc2)cc1 [ospemifene],enhanced,enhanced,low aqueous solubility,excellent tolerability,rather low,2-3 fold,–,–
CN(C)CCOc1ccc(/C(=C(/CCCl)c2ccccc2)c2ccccc2)cc1 [toremifene],–,–,low aqueous solubility,–,–,–,retarded the absorption,did not have any positive effect
